According to patent publication US20170022171A1, “2,5-DISUBSTITUTED CYCLOPENTANECARBOXYLIC ACIDS AND THEIR USE” (Bayer Pharma Aktiengesellschaft, priority 2014, published 2017):

What was measured:
rat hepatocytes = test: Hepatocyte assay for determination of metabolic stability; format: in vitro ADME; conditions: after incubation with rat hepatocytes
Procedure: The metabolic stability of test compounds towards hepatocytes is determined by incubating the compounds at low concentrations (preferably below or around 1 μM) and at low cell counts (preferably at 1*10^6 cells/ml) in order to ensure maximum linearity of kinetic conditions in the experiment. Seven samples from the incubation solution are taken for the LC-MS analysis within a fixed time pattern, in order to determine the half-life (i.e. the degradation) of the particular compound. This half life is used to calculate various “Clearance” parameters (CL) and “Fmax” values (see below).
The CL and Fmax values are a measure of the phase 1 and phase 2 metabolism of the compounds in the hepatocytes. In order to minimize the influence of the organic solvent on the enzymes in the incubation batches, the concentration thereof is generally limited to 1% (acetonitrile) or 0.1% (DMSO).
For all species and breeds, a hepatocyte cell count in the liver of 1.1*10^8 cells/g of liver is expected.
The parameters calculated and the meanings thereof are: • Fmax well-stirred [%] maximum possible bioavailability after oral administration • Calculation: (1−CLblood well-stirred/QH)*100 • CLblood well-stirred [L/(h*kg)] calculated blood clearance (well-stirred model) • Calculation: (QH*CL′intrinsic)/(QH+CL′intrinsic) • CL′intrinsic[ml/(min*kg)] maximum ability of the liver (of the hepatocytes) to metabolize a compound (assuming that the liver blood flow is not rate-limiting) • Calculation: CL′intrinsic, apparent*species-specific hepatocyte count [1.1*10^8/g liver]*species-specific liver weight [g/kg] • CL′intrinsic, apparent[ml/(min*mg)] normalizes the elimination constant by dividing it by the hepatocyte cell count x used (x*10^6/ml) • Calculation: ke1[1/min]/(cell count [x*10^6]/incubation volume [ml]) • (QH=species-specific liver blood flow).

[1] = biological target: T1, human macrophage elastase (HME/hMMP-12) (Homo sapiens, UniProt P39900); test: In vitro HME inhibition test (standard or high-sensitivity); format: biochemical; conditions: in some cases mean values
T1 construct: 0.5 nM HME; purchased R&D Systems 917-MP
T1 sequence (P39900 106-470): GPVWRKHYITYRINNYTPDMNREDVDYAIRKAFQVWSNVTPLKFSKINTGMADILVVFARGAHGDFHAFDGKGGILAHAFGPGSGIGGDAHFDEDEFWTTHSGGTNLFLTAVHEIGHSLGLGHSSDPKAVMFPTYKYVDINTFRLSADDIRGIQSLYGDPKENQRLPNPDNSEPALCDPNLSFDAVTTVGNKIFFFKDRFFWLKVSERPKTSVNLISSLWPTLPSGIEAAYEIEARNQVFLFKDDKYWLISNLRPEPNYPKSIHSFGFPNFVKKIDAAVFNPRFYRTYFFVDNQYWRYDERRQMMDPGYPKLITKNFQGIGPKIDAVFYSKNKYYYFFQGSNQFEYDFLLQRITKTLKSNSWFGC
In short: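 Fluorogenic assay: 0.5 nM autoactivated HME with 5 µM Mca-Pro-Leu-Gly-Leu-Glu-Glu-Ala-Dap(Dnp)-NH2 in HEPES pH 7.4 buffer (NaCl, CaCl2, ZnCl2, EDTA, Brij), 2 h at 37 °C; ex 323/em 393 nm. IC50 from fluorescence versus concentration. High-sensitivity format: ~0.05 nM enzyme, ~16 h incubation.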

SMILES	CLblood (calculated blood clearance, well-stirred) (rat hepatocytes) [mL/min/kg]	Fmax (maximum possible bioavailability after oral administration, well-stirred) (rat hepatocytes) [%]	IC50 [1] [pM]
Cc1ccc2nnn(C[C@H]3CC[C@@H](C(=O)c4ccc(OCc5ccc(F)cc5)cc4)[C@@H]3C(=O)O)c(=O)c2c1 (racemic) [Example 95, (+)-(1RS,2RS,5SR)-2-{4-[(4-Fluorobenzyl)oxy]benzoyl}-5-[(6-methyl-4-oxo-1,2,3-benzotriazin-3(4H)-yl)methyl]cyclopentanecarboxylic acid]	8.33	88.2	–
Cc1ccc2nnn(C[C@H]3CC[C@@H](C(=O)c4ccc(OCc5cccc(Cl)c5)cc4)[C@@H]3C(=O)O)c(=O)c2c1 (racemic) [Example 104, (+)-(1RS,2RS,5SR)-2-{4-[(3-Chlorobenzyl)oxy]benzoyl}-5-[(6-methyl-4-oxo-1,2,3-benzotriazin-3(4H)-yl)methyl]cyclopentanecarboxylic acid]	16.5	76.3	–
Cc1ccc2nnn(C[C@H]3CC[C@@H](C(=O)c4ccc(OCc5cccc(C(F)(F)F)c5)cc4)[C@@H]3C(=O)O)c(=O)c2c1 (racemic) [Example 101, (+)-(1RS,2SR,5RS)-2-[(6-Methyl-4-oxo-1,2,3-benzotriazin-3(4H)-yl)methyl]-5-(4-{[3-(trifluoromethyl)benzyl]oxy}benzoyl)cyclopentanecarboxylic acid]	1.5	97.8	–
CCCCCCOc1ccc(C(=O)[C@H]2CC[C@@H](Cn3nnc4ccc(C)cc4c3=O)[C@@H]2C(=O)O)cc1 (racemic) [Example 120, (+/−)-(1RS,2RS,5SR)-2-[4-(Hexyloxy)benzoyl]-5-[(6-methyl-4-oxo-1,2,3-benzotriazin-3(4H)-yl)methyl]cyclopentanecarboxylic acid]	–	–	100
CCCCCSc1ccc(C(=O)[C@@H]2CC[C@H](Cn3nnc4ccc(C(F)(F)F)cc4c3=O)[C@H]2C(=O)O)cc1 (single isomer, unassigned) [Example 89, (+)-(1RS,2SR,5RS)-2-{[4-Oxo-6-(trifluoromethyl)-1,2,3-benzotriazin-3(4H)-yl]methyl}-5-[4-(pentylsulphanyl)benzoyl]cyclopentanecarboxylic acid]	–	–	45
CCCCCCOc1ccc(C(=O)[C@@H]2CC[C@H](Cn3nnc4ccc(C(F)(F)F)cc4c3=O)[C@H]2C(=O)O)cc1 (single isomer, unassigned) [Example 59, (−)-(1RS,2RS,5SR)-2-[4-(Hexyloxy)benzoyl]-5-{[4-oxo-6-(trifluoromethyl)-1,2,3-benzotriazin-3(4H)-yl]methyl}cyclopentanecarboxylic acid]	–	–	4200
O=C(O)[C@H]1[C@H](Cn2nnc3ccc(C(F)(F)F)cc3c2=O)CC[C@@H]1C(=O)c1ccc(OCC2CC2)cc1 (racemic) [Example 49, (+/−)-(1RS,2RS,5SR)-2-[4-(Cyclopropylmethoxy)benzoyl]-5-{[4-oxo-6-(trifluoromethyl)-1,2,3-benzotriazin-3(4H)-yl]methyl}cyclopentanecarboxylic acid]	–	–	140
CCCCOc1ccc(C(=O)[C@H]2CC[C@@H](Cn3nnc4ccc(C(F)(F)F)cc4c3=O)[C@@H]2C(=O)O)cc1 (racemic) [Example 66, (+/−)-(1RS,2RS,5SR)-2-(4-Butoxybenzoyl)-5-{[4-oxo-6-(trifluoromethyl)-1,2,3-benzotriazin-3 (4H)-yl]methyl}cyclopentanecarboxylic acid]	–	–	43
Cc1ccc2nnn(C[C@@H]3CC[C@H](C(=O)c4ccc(OCC5CCCCC5)cc4)[C@H]3C(=O)O)c(=O)c2c1 (racemic) [Example 116, (+/−)-(1RS,2RS,5SR)-2-[4-(Cyclohexylmethoxy)benzoyl]-5-[(6-methyl-4-oxo-1,2,3-benzotriazin-3(4H)-yl)methyl]cyclopentanecarboxylic acid]	–	–	93
Cc1ccc2nnn(C[C@H]3CC[C@@H](C(=O)c4ccc(OCc5cccc(OC(F)(F)F)c5)cc4)[C@@H]3C(=O)O)c(=O)c2c1 (racemic) [Example 110, (+)-(1RS,2SR,5RS)-2-[(6-Methyl-4-oxo-1,2,3-benzotriazin-3(4H)-yl)methyl]-5-(4-{[3-(trifluoromethoxy)benzyl]oxy}benzoyl)cyclopentanecarboxylic acid]	6.67	90.4	–
CC(C)COc1ccc(C(=O)[C@H]2CC[C@@H](Cn3nnc4ccc(C(F)(F)F)cc4c3=O)[C@@H]2C(=O)O)cc1 (racemic) [Example 72, (+/−)-(1RS,2RS,5SR)-2-(4-Isobutoxybenzoyl)-5-{[4-oxo-6-(trifluoromethyl)-1,2,3-benzotriazin-3(4H)-yl]methyl}cyclopentanecarboxylic acid]	–	–	130
O=C(O)[C@@H]1[C@@H](Cn2nnc3ccc(C(F)(F)F)cc3c2=O)CC[C@H]1C(=O)c1ccc(OCCC2CCCC2)cc1 (single isomer, unassigned) [Example 54, (−)-(1RS,2RS,5SR)-2-[4-(2-Cyclopentylethoxy)benzoyl]-5-{[4-oxo-6-(trifluoromethyl)-1,2,3-benzotriazin-3(4H)-yl]methyl}cyclopentanecarboxylic acid]	–	–	22000
O=C(O)[C@@H]1[C@@H](Cn2nnc3ccc(C(F)(F)F)cc3c2=O)CC[C@H]1C(=O)c1ccc(OCCc2ccccc2)cc1 (single isomer, unassigned) [Example 38, (−)-(1RS,2SR,5RS)-2-{[4-Oxo-6-(trifluoromethyl)-1,2,3-benzotriazin-3(4H)-yl]methyl}-5-[4-(2-phenylethoxy)benzoyl]cyclopentanecarboxylic acid]	–	–	350000
Cc1ccc2nnn(C[C@H]3CC[C@@H](C(=O)c4ccc(OCc5ccccc5)cc4)[C@@H]3C(=O)O)c(=O)c2c1 (racemic) [Example 92, (+)-(1RS,2RS,5SR)-2-[4-(Benzyloxy)benzoyl]-5-[(6-methyl-4-oxo-1,2,3-benzotriazin-3(4H)-yl)methyl]cyclopentanecarboxylic acid]	16.8	76.1	–
